Experimental data: patent US8802597B2, “Herbicidal pyrimidines” (E I du Pont de Nemours and Company, priority 2003, dated 2014)

What was measured:
Assay type in all cases: in vivo
[1] = tested on: giant foxtail (Setaria faberi); test: Test A pre/postemergence
Procedure, shortened: (§1)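 Greenhouse herbicide test with preemergence directed soil spray and postemergence foliar spray at the 1- to 2-leaf stage; visual control rating 0–100 versus untreated at ~10 days.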

[2] = tested on: redroot pigweed (Amaranthus retroflexus); test: Test A pre/postemergence
Procedure, shortened: as §1

[3] = tested on: crabgrass (Digitaria sanguinalis); test: Test A pre/postemergence
Procedure, shortened: as §1

[4] = tested on: velvetleaf (Abutilon theophrasti); test: Test A pre/postemergence
Procedure, shortened: as §1

[5] = tested on: morningglory (Ipomoea spp.); test: Test A pre/postemergence
Procedure, shortened: as §1

[6] = tested on: barnyardgrass (Echinochloa crus-galli); test: Test A pre/postemergence
Procedure, shortened: as §1

[7] = tested on: rice flatsedge (Cyperus iria); test: Test E flooded paddy water application; conditions: Flood, 21 days, scale 0 to 100 (0 no effect, 100 complete control)
Procedure, shortened: (§2)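 Response scored visually on a 0–100 scale (100 = complete control) at 21 days against untreated pots. Treatment was into paddy water 3 cm deep over silt loam, with plants at the 2.0–2.5-leaf stage, grown under 16-h light at 29.5/26.7 °C day/night.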

[8] = tested on: water seeded rice seedlings (Oryza sativa cv. ‘Japonica-M202’); test: Test E flooded paddy water application; conditions: Flood, 21 days, scale 0 to 100 (0 no effect, 100 complete control)
Procedure, shortened: as §2

[9] = tested on: ducksalad (Heteranthera limosa); test: Test E flooded paddy water application; conditions: Flood, 21 days, scale 0 to 100 (0 no effect, 100 complete control)
Procedure, shortened: as §2

[10] = tested on: smallflower umbrella sedge (Cyperus difformis); test: Test E flooded paddy water application; conditions: Flood, 21 days, scale 0 to 100 (0 no effect, 100 complete control)
Procedure, shortened: as §2

[11] = tested on: transplanted rice seedlings (Oryza sativa cv. ‘Japonica-M202’); test: Test E flooded paddy water application; conditions: Flood, 21 days, scale 0 to 100 (0 no effect, 100 complete control)
Procedure, shortened: as §2

[12] = tested on: early watergrass (Echinochloa oryzoides); test: Test E flooded paddy water application; conditions: Flood, 21 days, scale 0 to 100 (0 no effect, 100 complete control)
Procedure, shortened: as §2

[13] = tested on: bearded (brdd.) sprangletop (Leptochloa fusca ssp. fascicularis); test: Test E flooded paddy water application; conditions: Flood, 21 days, scale 0 to 100 (0 no effect, 100 complete control)
Procedure, shortened: as §2

[14] = tested on: late watergrass (Echinochloa oryzicola); test: Test E flooded paddy water application; conditions: Flood, 21 days, scale 0 to 100 (0 no effect, 100 complete control)
Procedure, shortened: as §2

[15] = tested on: barnyardgrass (Echinochloa crus-galli); test: Test E flooded paddy water application; conditions: Flood, 21 days, scale 0 to 100 (0 no effect, 100 complete control)
Procedure, shortened: as §2

[16] = tested on: purple redstem (Ammannia coccinea); test: Test E flooded paddy water application; conditions: Flood, 21 days, scale 0 to 100 (0 no effect, 100 complete control)
Procedure, shortened: as §2

[17] = tested on: junglerice (Echinochloa colona); test: Test E flooded paddy water application; conditions: Flood, 21 days, scale 0 to 100 (0 no effect, 100 complete control)
Procedure, shortened: as §2

[18] = Postemergence, 125 g ai/ha, 0 to 100 scale (0 no effect, 100 complete control)
[19] = Postemergence, 500 g ai/ha, 0 to 100 scale (0 no effect, 100 complete control)
[20] = Preemergence, 125 g ai/ha, 0 to 100 scale where 0 is no effect and 100 is complete control, approximately ten days
[21] = Preemergence, 500 g ai/ha, 0 to 100 scale where 0 is no effect and 100 is complete control, approximately ten days

Structure (SMILES): CCOC(=O)c1nc(-c2ccc(OC)cc2)nc(N)c1Cl [Compound 98]
- Plant response rating, Foxtail, Giant [1, 18]: 0
- Plant response rating, Foxtail, Giant [1, 19]: 15
- Plant response rating, Foxtail, Giant [1, 20]: 0
- Plant response rating, Foxtail, Giant [1, 21]: 0
- Plant response rating, Pigweed [2, 18]: 5
- Plant response rating, Pigweed [2, 19]: 15
- Plant response rating, Pigweed [2, 20]: 0
- Plant response rating, Pigweed [2, 21]: 0
- Plant response rating, Crabgrass [3, 18]: 0
- Plant response rating, Crabgrass [3, 19]: 10
- Plant response rating, Crabgrass [3, 20]: 0
- Plant response rating, Crabgrass [3, 21]: 15
- Plant response rating, Velvetleaf [4, 18]: 35
- Plant response rating, Velvetleaf [4, 19]: 45
- Plant response rating, Velvetleaf [4, 20]: 0
- Plant response rating, Velvetleaf [4, 21]: 5
- Plant response rating, Morningglory [5, 18]: 0
- Plant response rating, Morningglory [5, 19]: 0
- Plant response rating, Morningglory [5, 20]: 0
- Plant response rating, Morningglory [5, 21]: 0
- Plant response rating, Barnyardgrass [6, 18]: 0
- Plant response rating, Barnyardgrass [6, 19]: 20
- Plant response rating, Barnyardgrass [6, 20]: 0
- Plant response rating, Barnyardgrass [6, 21]: 0
- Flatsedge, Rice plant response rating ([7]; 32 g ai/ha): 80
- Flatsedge, Rice plant response rating ([7]; 64 g ai/ha): 100
- Flatsedge, Rice plant response rating ([7]; 125 g ai/ha): 100
- Flatsedge, Rice plant response rating ([7]; 250 g ai/ha): 100
- Plant response rating, Flatsedge, Rice ([7]; 16 g ai/ha): 80
- Rice, Water Seeded plant response rating ([8]; 32 g ai/ha): 0
- Rice, Water Seeded plant response rating ([8]; 64 g ai/ha): 0
- Rice, Water Seeded plant response rating ([8]; 125 g ai/ha): 0
- Rice, Water Seeded plant response rating ([8]; 250 g ai/ha): 0
- Plant response rating, Rice, Water Seeded ([8]; 16 g ai/ha): 0
- Ducksalad plant response rating ([9]; 32 g ai/ha): 100
- Ducksalad plant response rating ([9]; 64 g ai/ha): 100
- Ducksalad plant response rating ([9]; 125 g ai/ha): 100
- Ducksalad plant response rating ([9]; 250 g ai/ha): 100
- Plant response rating, Ducksalad ([9]; 16 g ai/ha): 0
- Sedge, Umbrella plant response rating ([10]; 32 g ai/ha): 60
- Sedge, Umbrella plant response rating ([10]; 64 g ai/ha): 60
- Sedge, Umbrella plant response rating ([10]; 125 g ai/ha): 60
- Sedge, Umbrella plant response rating ([10]; 250 g ai/ha): 60
- Plant response rating, Sedge, Umbrella ([10]; 16 g ai/ha): 60
- Rice, Transplanted plant response rating ([11]; 32 g ai/ha): 0
- Rice, Transplanted plant response rating ([11]; 64 g ai/ha): 0
- Rice, Transplanted plant response rating ([11]; 125 g ai/ha): 0
- Rice, Transplanted plant response rating ([11]; 250 g ai/ha): 0
- Plant response rating, Rice, Transplanted ([11]; 16 g ai/ha): 0
- Watergrass, Early plant response rating ([12]; 32 g ai/ha): 0
- Watergrass, Early plant response rating ([12]; 64 g ai/ha): 0
- Watergrass, Early plant response rating ([12]; 125 g ai/ha): 0
- Watergrass, Early plant response rating ([12]; 250 g ai/ha): 0
- Plant response rating, Watergrass, Early ([12]; 16 g ai/ha): 0
- Sprangletop, Brdd. plant response rating ([13]; 32 g ai/ha): 0
- Sprangletop, Brdd. plant response rating ([13]; 64 g ai/ha): 0
- Sprangletop, Brdd. plant response rating ([13]; 125 g ai/ha): 0
- Sprangletop, Brdd. plant response rating ([13]; 250 g ai/ha): 0
- Plant response rating, Sprangletop, Brdd. ([13]; 16 g ai/ha): 0
- Watergrass, Late plant response rating ([14]; 32 g ai/ha): 0
- Watergrass, Late plant response rating ([14]; 64 g ai/ha): 0
- Watergrass, Late plant response rating ([14]; 125 g ai/ha): 0
- Watergrass, Late plant response rating ([14]; 250 g ai/ha): 0
- Plant response rating, Watergrass, Late ([14]; 16 g ai/ha): 0
- Barnyardgrass plant response rating ([15]; 32 g ai/ha): 0
- Barnyardgrass plant response rating ([15]; 64 g ai/ha): 0
- Barnyardgrass plant response rating ([15]; 125 g ai/ha): 0
- Barnyardgrass plant response rating ([15]; 250 g ai/ha): 0
- Plant response rating, Barnyardgrass ([15]; 16 g ai/ha): 0
- Redstem plant response rating ([16]; 32 g ai/ha): 0
- Redstem plant response rating ([16]; 64 g ai/ha): 0
- Redstem plant response rating ([16]; 125 g ai/ha): 40
- Redstem plant response rating ([16]; 250 g ai/ha): 40
- Plant response rating, Redstem ([16]; 16 g ai/ha): 0
- Junglerice plant response rating ([17]; 32 g ai/ha): 0
- Junglerice plant response rating ([17]; 64 g ai/ha): 0
- Junglerice plant response rating ([17]; 125 g ai/ha): 0
- Junglerice plant response rating ([17]; 250 g ai/ha): 0
- Plant response rating, Junglerice ([17]; 16 g ai/ha): 0
